SMILES strings stand for the structures.

One data set concerns mice. In words: LD50 test, single intragastric dose (preliminary safety evaluation). The format is in vivo. The note with it: 5000 mg/kg intragastric.
Data set [1] deals with Human leukemia HL60 cells. Description: MTT assay, proliferation of human leukemia HL60 cells. To be noted: Homo sapiens, HL-60, 48 h, 10 μM, 48 h, Mean ± SE; read-out: Inhibitive rate (%) against HL60 cells. The format is cell-based. The protocol: The survival rate of cells was determined by MTT assay, which is based on the metabolic reduction of 3-(4,5-dimethyl-2thiahiazoyl)-3,5-di-phenyl-tetrazolium bromide (MTT) by viable cells. MTT is a yellow compound, a dye that accepts hydrogen ion, which can act on the respiratory chain in the mitochondria of viable cells. Under the action of succinate dehydrogenase and cytochrome C, the tetrazolium ring was cleaved to form blue Formazan crystals, and the amount of Formazan crystals generated was only proportional to the number of the viable cells. The enzymes disappeared in dead cells, so Formazan crystals could not be dissolved in MTT solution containing 20% sodium dodecyl sulfate (pH 4.7).
The cells in the logarithmic growth phase were selected and adjusted to an appropriate cell density, seeded in a 96-well plate, 100 μl/well, and cultured in a 37° C., 5% CO2 incubator. The cells were allowed to adhere overnight, then the culture medium was replaced and the drug was added to cultivate for 48 h. A blank control group, a drug administration group and a positive control group were set, with four repeats in each group.
After 48 h of drug treatment, the cells were incubated with 0.25 mg/ml MTT at 37° C. for 3-4 h, and 100 μl of dimethyl sulfoxide (DMSO) was added to each well after aspirating the culture solution.
(In general: Formazan colour is commonly taken as a measure of viable cells.)

Data set [2] deals with APP/PS1 double transgenic AD model mice. In words: β-amyloid deposition in cerebral cortex and hippocampus of APP/PS1 mice. The format is in vivo. The protocol:
The drugs were administered three days after the adaptive feeding. Peanut oil was used as the solvent. […] On the 6th to 9th day after the administration, the new object identification test was performed. On the 10th day, the Y-maze test was performed. On the 11th to 15th day, the Morris water maze test was performed to determine the improvement of learning and memory. The administration of the drugs was continued during the behavioral experiment until the animals were sacrificed (16th day).
After the behavioral experiment, the mice were anesthetized with an intraperitoneal injection of 3.5% chloral hydrate 3.5% (about […] for each mouse). Then the back of the mouse was fixed on the operating table and the chest was open to expose the heart. A perfusion needle was inserted into the left ventricle from the apex of the heart, while the right atrial appendage cut a small opening. First, perfusion was performed with about 200 ml saline. When the tail of the mouse was cut to find no blood, 300 ml 4% paraformaldehyde buffer (0.1 mol/L) at 4° C. was used to perfuse until the body of the mouse was stiff. The mouse was then decapitated, and the whole brain was obtained and fixed in 4% paraformaldehyde at 4° C. After 24 h, the brain was embedded in conventional paraffin and coronally sectioned to obtain the tissue sections with a thickness of 5 μm for immunohistochemical staining. […]

Data set [3] has the same test system. In words: Safety observations during repeated administration in the behavioral experiment. The format is in vivo. The note with it: for Organ index of heart, liver, spleen and kidney: repeated administration (3 consecutive months). The protocol:
OAB-14 at a doge of 50, 100 and 200 mg/kg were respectively given to APP/PS1 double transgenic AD model mice aged 8 months by continuous intragastric administration for 14 days or 3 months (to 11 months old, equivalent to the middle- and late-aged AD), using donepezil as a positive control.

As for `CC1(C)CCC(C)(C)c2c1cc1c(c2NC(=O)c2ccc(NC(=O)NCCN)cc2)C(C)(C)CCC1(C)C` [OAB-14, 1-(2-amino) ethyl-3-{4-[(1,1,4,4,5,5,8,8-octamethyl-1,2,3,4,5,6,7,8-octahydro-9-anthryl)carbamoyl]phenyl} urea], in the data set with mice, the “Abnormalities in organs such as heart, liver, spleen and kidney” value is “no abnormalities were detected”. In addition, in the data set with mice, the “Adverse reactions observed with the naked eye” value is “no visible adverse reactions were observed”. Besides, the inhibition at 10 µM in data set [1] is 24.3 ± 3.18%. For the same compound, the “Reduction of the deposition of β-amyloid protein in cerebral cortex and hippocampus” value in data set [2] (200 mg/kg, continuous intragastric administration 14 days, 8-month-old APP/PS1 mice) came out at 67.4%. Also, the “Dose-effect relationship of the reduction of β-amyloid deposition” value in data set [2] (dose range 50-200 mg/kg, intragastric, 14 days) was “good dose-effect relationship”. In data set [3] (14 days or 3 months), the “Changes in the main organ tissue sections compared with the blank group” value is on record as “no changes were observed”. Besides, in data set [3] (low, medium and high dose, 3 consecutive months), the “General condition of the mice” value was “in good condition”. Moreover, the “Organ index of heart, liver, spleen and kidney” value is “not abnormal” in data set [3] (low, medium and high dose); “not seen to be abnormal” in data set [3] (low, medium and high dose, listed as OAR-14).

For the origin of these results see patent US10399931B2, “Octahydroanthracene compound, preparation method and application thereof” (SHANDONG XINHUA PHARMACEUTICAL CO., LTD., priority 2016, dated 2019).
